ChEMBL document CHEMBL1909046, “DrugMatrix in vitro pharmacology data”

How the values were obtained:
[1] = DRUGMATRIX: Calcium Channel Type L, Dihydropyridine radioligand binding (ligand: [3H] Nitrendipine); assay type: cell membranes, Rattus norvegicus, Wistar, Cerebral cortex, Membrane; details: Not Active = under 50% inhibition at 10 µM
[2] = DRUGMATRIX: Glutamate, AMPA radioligand binding (ligand: [3H] AMPA); assay type: cell membranes, Rattus norvegicus, Wistar, Cerebral cortex, Membrane; details: Not Active = under 50% inhibition at 10 µM
[3] = target: Mitogen-activated protein kinase 14 (Homo sapiens, UniProt Q16539); design: species or system Escherichia coli;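 also: inhibition of p38alpha enzyme activity in a biochemical kinase assay, with myelin basic protein serving as substrate; in other assays of this panel Not Active means under 50% inhibition at 10 µM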
[4] = target: Substance-P receptor (Homo sapiens, UniProt P25103); assay type: cell membranes, CHO, Membrane; details: cho; also: in other assays of this panel Not Active means under 50% inhibition at 10 µM
[5] = target: D(1A) dopamine receptor (Homo sapiens, UniProt P21728); assay: DRUGMATRIX: Dopamine D1 radioligand binding (ligand: [3H] SCH-23390); assay type: cell membranes, CHO, Membrane; details: cho; Not Active = under 50% inhibition at 10 µM
[6] = DRUGMATRIX: GABAA, Muscimol, Central radioligand binding (ligand: [3H] Muscimol); assay type: cell membranes, Rattus norvegicus, Wistar, Brain, Membrane; details: Not Active = under 50% inhibition at 10 µM
[7] = DRUGMATRIX: Serotonin (5-Hydroxytryptamine) 5-HT3 radioligand binding (ligand: [3H] GR-65630); assay type: cell membranes, Membrane; details: hek293; Not Active = under 50% inhibition at 10 µM
[8] = target: T1, Adenosine receptor A3 (Homo sapiens, UniProt P0DMS8); assay type: cell membranes, CHO-K1, Membrane; details: cho-k1;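 also: radioligand binding assay with AB-MECA serving as the labeled ligand; in other assays of this panel Not Active means under 50% inhibition at 10 µM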
T1 sequence (P0DMS8 whole entry): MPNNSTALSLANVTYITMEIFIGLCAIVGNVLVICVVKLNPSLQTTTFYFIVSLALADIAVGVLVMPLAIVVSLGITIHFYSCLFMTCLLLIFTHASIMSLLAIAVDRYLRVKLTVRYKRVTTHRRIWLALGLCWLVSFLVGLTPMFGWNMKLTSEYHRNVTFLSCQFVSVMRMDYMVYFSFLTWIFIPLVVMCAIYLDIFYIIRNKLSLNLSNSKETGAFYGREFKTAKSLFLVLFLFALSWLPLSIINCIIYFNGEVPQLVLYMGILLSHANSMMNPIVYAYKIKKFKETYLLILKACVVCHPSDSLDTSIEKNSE

[9] = DRUGMATRIX: Glutamate, Kainate radioligand binding (ligand: [3H] Kainic acid); assay type: cell membranes, Rattus norvegicus, Wistar, Brain, Membrane; details: Not Active = under 50% inhibition at 10 µM
[10] = DRUGMATRIX: Phorbol Ester radioligand binding (ligand: [3H] PDBu); assay type: cell membranes, Mus musculus, ICR, Brain, Membrane; details: Not Active = under 50% inhibition at 10 µM
[11] = target: Melanocortin receptor 3 (Homo sapiens, UniProt P41968); assay type: cell membranes, Membrane; details: hek293; also: in other assays of this panel Not Active means under 50% inhibition at 10 µM
[12] = DRUGMATRIX: GABAA, Flunitrazepam, Central radioligand binding (ligand: [3H] Flunitrazepam); assay type: cell membranes, Rattus norvegicus, Wistar, Brain, Membrane; details: Not Active = under 50% inhibition at 10 µM
[13] = target: D(3) dopamine receptor (Homo sapiens, UniProt P35462); assay: DRUGMATRIX: Dopamine D3 radioligand binding (ligand: [3H] Spiperone); assay type: cell membranes, CHO, Membrane; details: cho
[14] = target: Delta-type opioid receptor (Homo sapiens, UniProt P41143); assay type: cell membranes, HEK293, Membrane; details: hek293; also: in other assays of this panel Not Active means under 50% inhibition at 10 µM
[15] = target: T2, Interstitial collagenase (Homo sapiens, UniProt P03956); assay type: tissue-based, Rheumatoid synovial fibroblasts
T2 sequence (P03956 whole entry): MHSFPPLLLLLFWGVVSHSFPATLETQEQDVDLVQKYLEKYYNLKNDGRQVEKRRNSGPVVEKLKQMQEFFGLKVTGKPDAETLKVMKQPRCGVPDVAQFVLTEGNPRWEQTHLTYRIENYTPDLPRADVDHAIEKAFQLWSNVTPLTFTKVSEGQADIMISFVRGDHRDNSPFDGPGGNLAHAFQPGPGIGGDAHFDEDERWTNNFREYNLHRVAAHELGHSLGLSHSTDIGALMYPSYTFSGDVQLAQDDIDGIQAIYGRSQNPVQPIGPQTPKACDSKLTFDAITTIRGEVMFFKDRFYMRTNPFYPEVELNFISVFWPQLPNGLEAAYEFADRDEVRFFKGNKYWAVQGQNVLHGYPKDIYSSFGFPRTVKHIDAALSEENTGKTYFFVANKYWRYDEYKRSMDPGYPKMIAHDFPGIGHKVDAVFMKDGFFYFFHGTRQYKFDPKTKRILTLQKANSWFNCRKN

[16] = target: T3, Progesterone receptor (Bos taurus, UniProt Q690N0); assay: DRUGMATRIX: Progesterone radioligand binding (ligand: [3H] R-5020); assay type: tissue-based, Uterus; details: Not Active = under 50% inhibition at 10 µM
T3 sequence (Q690N0 whole entry): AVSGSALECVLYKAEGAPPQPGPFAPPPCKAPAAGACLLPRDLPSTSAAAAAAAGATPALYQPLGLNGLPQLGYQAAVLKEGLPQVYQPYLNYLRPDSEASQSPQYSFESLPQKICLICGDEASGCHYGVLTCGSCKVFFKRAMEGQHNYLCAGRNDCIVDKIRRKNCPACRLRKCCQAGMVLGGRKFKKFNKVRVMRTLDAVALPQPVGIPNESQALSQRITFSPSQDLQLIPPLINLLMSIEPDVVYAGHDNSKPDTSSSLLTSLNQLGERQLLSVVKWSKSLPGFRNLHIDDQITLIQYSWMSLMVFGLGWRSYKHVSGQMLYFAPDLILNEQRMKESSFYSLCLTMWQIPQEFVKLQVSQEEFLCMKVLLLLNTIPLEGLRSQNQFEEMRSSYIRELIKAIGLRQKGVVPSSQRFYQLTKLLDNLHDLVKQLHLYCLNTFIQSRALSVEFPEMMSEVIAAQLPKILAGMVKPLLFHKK

[17] = target: Tyrosine-protein kinase Fyn (Homo sapiens, UniProt P06241); assay: biochemical; assay type: cell-based, Insect cells; details: insect cells
[18] = target: T4, C-X-C chemokine receptor type 1 (Homo sapiens, UniProt P25024); also: in other assays of this panel Not Active means under 50% inhibition at 10 µM
T4 sequence (P25024 whole entry): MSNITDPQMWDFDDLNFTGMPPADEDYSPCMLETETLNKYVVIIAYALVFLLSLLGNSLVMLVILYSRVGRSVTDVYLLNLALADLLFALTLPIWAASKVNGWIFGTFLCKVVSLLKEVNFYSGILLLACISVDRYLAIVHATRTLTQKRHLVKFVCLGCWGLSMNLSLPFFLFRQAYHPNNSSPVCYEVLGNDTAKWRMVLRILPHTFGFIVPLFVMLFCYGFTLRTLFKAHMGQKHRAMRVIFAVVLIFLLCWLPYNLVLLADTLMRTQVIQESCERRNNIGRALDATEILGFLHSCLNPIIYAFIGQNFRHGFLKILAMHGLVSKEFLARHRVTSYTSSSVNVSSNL

[19] = target: Aldo-keto reductase family 1 member B1 (Rattus norvegicus, UniProt P07943); assay type: tissue-based, Lens of camera-type eye
[20] = target: Carbonic anhydrase 2 (Homo sapiens, UniProt P00918); assay: DRUGMATRIX: Carbonic Anhydrase II enzyme inhibition (substrate: 4-Nitrophenyl acetate (4-NPA)); assay type: tissue-based, Erythrocyte; details: erythrocyte; Not Active = under 50% inhibition at 10 µM

Chain of D(1A) dopamine receptor (P21728 whole entry): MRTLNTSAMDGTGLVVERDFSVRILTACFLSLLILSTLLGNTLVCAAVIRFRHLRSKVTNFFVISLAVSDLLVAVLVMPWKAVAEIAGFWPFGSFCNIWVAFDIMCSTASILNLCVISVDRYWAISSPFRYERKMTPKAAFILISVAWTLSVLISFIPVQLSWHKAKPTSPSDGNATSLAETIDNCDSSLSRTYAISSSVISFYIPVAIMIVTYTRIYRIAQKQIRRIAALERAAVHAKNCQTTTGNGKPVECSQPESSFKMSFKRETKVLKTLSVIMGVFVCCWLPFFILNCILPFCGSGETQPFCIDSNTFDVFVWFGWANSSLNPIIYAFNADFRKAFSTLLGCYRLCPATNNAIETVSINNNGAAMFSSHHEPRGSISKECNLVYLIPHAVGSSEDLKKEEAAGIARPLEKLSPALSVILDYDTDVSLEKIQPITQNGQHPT
Chain of Tyrosine-protein kinase Fyn (P06241 whole entry): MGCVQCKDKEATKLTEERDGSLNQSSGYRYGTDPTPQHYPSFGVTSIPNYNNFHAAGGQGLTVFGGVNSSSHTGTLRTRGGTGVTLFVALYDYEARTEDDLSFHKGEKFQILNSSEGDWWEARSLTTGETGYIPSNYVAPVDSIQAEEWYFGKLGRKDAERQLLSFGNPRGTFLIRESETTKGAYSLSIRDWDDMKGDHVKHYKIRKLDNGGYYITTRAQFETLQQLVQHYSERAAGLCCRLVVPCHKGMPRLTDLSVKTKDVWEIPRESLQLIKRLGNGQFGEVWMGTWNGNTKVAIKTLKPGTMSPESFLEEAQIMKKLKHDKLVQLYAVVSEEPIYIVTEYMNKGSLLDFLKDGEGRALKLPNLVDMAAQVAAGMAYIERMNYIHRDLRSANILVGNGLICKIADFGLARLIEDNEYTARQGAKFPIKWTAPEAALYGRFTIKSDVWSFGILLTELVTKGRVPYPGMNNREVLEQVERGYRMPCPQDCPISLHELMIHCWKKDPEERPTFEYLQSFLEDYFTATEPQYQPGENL
Chain of D(3) dopamine receptor (P35462 whole entry): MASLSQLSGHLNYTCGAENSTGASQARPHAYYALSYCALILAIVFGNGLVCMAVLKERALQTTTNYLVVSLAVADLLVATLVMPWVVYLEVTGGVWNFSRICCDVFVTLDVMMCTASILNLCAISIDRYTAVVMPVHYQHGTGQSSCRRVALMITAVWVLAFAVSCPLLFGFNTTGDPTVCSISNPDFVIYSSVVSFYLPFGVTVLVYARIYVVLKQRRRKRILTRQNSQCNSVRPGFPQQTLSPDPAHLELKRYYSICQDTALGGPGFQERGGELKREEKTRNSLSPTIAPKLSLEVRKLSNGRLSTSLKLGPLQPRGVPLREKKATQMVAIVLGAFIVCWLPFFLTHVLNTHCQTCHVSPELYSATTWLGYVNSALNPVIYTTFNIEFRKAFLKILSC
Chain of Delta-type opioid receptor (P41143 whole entry): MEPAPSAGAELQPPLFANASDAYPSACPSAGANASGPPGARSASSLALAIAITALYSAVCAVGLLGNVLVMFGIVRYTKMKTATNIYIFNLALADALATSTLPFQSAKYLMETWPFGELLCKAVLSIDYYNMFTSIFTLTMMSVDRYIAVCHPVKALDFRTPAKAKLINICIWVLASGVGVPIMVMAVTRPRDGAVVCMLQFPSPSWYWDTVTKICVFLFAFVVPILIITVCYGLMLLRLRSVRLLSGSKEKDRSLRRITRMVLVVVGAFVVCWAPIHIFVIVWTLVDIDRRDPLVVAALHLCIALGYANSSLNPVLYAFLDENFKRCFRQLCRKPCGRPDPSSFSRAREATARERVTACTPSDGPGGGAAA
Chain of Substance-P receptor (P25103 whole entry): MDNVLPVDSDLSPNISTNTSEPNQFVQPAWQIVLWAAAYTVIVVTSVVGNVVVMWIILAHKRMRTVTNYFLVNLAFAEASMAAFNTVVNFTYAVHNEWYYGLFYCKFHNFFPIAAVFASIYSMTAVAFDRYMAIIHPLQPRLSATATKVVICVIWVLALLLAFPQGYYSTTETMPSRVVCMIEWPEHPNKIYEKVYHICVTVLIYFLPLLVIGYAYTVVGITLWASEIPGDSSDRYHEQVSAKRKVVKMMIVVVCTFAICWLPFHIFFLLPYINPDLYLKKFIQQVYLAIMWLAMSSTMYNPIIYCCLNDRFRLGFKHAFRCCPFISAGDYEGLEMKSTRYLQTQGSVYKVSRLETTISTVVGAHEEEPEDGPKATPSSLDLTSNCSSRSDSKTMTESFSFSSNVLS
Chain of Melanocortin receptor 3 (P41968 whole entry): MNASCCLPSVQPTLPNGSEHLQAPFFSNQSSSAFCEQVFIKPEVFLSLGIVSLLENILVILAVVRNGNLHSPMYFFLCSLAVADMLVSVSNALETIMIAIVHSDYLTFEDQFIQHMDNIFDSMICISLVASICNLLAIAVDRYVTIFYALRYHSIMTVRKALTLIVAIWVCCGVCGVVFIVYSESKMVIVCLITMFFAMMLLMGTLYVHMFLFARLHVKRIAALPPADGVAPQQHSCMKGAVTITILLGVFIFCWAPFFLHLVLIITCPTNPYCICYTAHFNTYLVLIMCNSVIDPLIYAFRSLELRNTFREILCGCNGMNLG
Chain of Mitogen-activated protein kinase 14 (Q16539 whole entry): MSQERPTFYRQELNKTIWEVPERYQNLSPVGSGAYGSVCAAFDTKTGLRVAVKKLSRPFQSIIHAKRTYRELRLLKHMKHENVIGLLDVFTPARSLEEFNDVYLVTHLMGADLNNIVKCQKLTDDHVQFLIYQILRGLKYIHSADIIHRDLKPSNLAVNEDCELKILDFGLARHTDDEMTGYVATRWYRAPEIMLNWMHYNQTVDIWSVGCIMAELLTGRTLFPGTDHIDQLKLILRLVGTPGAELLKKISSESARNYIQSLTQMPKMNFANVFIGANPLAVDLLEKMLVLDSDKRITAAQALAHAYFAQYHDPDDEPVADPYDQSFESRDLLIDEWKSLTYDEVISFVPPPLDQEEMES

Row | Structure (SMILES) | IC50 [1] | Ki [1] | IC50 [2] | Ki [2] | IC50 [3] | IC50 [4] | IC50 [5] | IC50 [6] | Ki [6] | IC50 [7] | Ki [7] | IC50 [8] | IC50 [9] | Ki [9] | IC50 [10] | Ki [10] | IC50 [11] | IC50 [12] | Ki [12] | IC50 [13] | further results
1 | O=[N+]([O-])c1cc([As](=O)(O)O)ccc1O [ROXARSONE] | Not Active | Not Active | Not Active | Not Active | Not Active | Not Active | Not Active | Not Active | Not Active | Not Active | Not Active | Not Active | Not Active | Not Active | Not Active | Not Active | Not Active | Not Active | Not Active | Not Active | Ki [3]: Not Active; Ki [4]: Not Active; Ki [5]: Not Active; Ki [8]: Not Active; Ki [11]: Not Active; Ki [13]: Not Active; IC50 [14]: Not Active; Ki [14]: Not Active; IC50 [15]: Not Active; Ki [15]: Not Active; IC50 [16]: Not Active; Ki [16]: Not Active; IC50 [17]: Not Active; Ki [17]: Not Active; IC50 [18]: Not Active; Ki [18]: Not Active; IC50 [19]: Not Active; Ki [19]: Not Active; IC50 [20]: Not Active; Ki [20]: Not Active
2 | NCCCC[C@H](N[C@@H](CCc1ccccc1)C(=O)O)C(=O)N1CCC[C@H]1C(=O)O [LISINOPRIL ANHYDROUS] | Not Active | Not Active | Not Active | Not Active | Not Active | Not Active | Not Active | Not Active | Not Active | Not Active | Not Active | Not Active | Not Active | Not Active | Not Active | Not Active | Not Active | Not Active | Not Active | Not Active | IC50 [14]: Not Active; IC50 [15]: Not Active; IC50 [16]: Not Active; IC50 [17]: Not Active; IC50 [18]: Not Active; IC50 [19]: Not Active; IC50 [20]: Not Active
3 | CC(=O)S[C@@H]1CC2=CC(=O)CC[C@]2(C)[C@H]2CC[C@@]3(C)[C@@H](CC[C@@]34CCC(=O)O4)[C@H]12 [SPIRONOLACTONE] | Not Active | Not Active | Not Active | Not Active | Not Active | Not Active | Not Active | Not Active | Not Active | Not Active | Not Active | Not Active | Not Active | Not Active | Not Active | Not Active | Not Active | Not Active | Not Active | Not Active | IC50 [14]: Not Active; IC50 [15]: Not Active; IC50 ([16]; read-out: IC50): 1670 nM; Ki ([16]; read-out: Ki): 217 nM; IC50 [17]: Not Active; IC50 [18]: Not Active; IC50 [19]: Not Active; IC50 [20]: Not Active
4 | CC(C)(C)NCC(O)c1ccc(O)c(CO)c1 (centres undefined) [ALBUTEROL] | Not Active | Not Active | Not Active | Not Active | Not Active | Not Active | Not Active | Not Active | Not Active | Not Active | Not Active | Not Active | Not Active | Not Active | Not Active | Not Active | Not Active | Not Active | Not Active | Not Active | IC50 [14]: Not Active; IC50 [15]: Not Active; IC50 [16]: Not Active; IC50 [17]: Not Active; IC50 [18]: Not Active; IC50 [19]: Not Active; IC50 [20]: Not Active
5 | COC(=O)[C@@H]1[C@H]2C[C@H]3c4[nH]c5ccccc5c4CCN3C[C@@H]2CC[C@@H]1O [YOHIMBINE] | Not Active | Not Active | Not Active | Not Active | Not Active | Not Active | Not Active | Not Active | Not Active | Not Active | Not Active | Not Active | Not Active | Not Active | Not Active | Not Active | Not Active | Not Active | Not Active | Not Active | IC50 [14]: Not Active; IC50 [15]: Not Active; IC50 [16]: Not Active; IC50 [17]: Not Active; IC50 [18]: Not Active; IC50 [19]: Not Active; IC50 [20]: Not Active
